# Tested on: brain of rats subjected to severe traumatic brain injury (sTBI)
# Assay: Ingenuity pathway analysis of differentially regulated genes after sTBI (canonical pathways, diseases and molecular functions; Example 4)
# Parameters: species or system rat
# Conditions: 2 days after TBI
# Procedure: Pathway analysis of the differentially regulated genes was carried out using the Ingenuity pathway analysis package. The analysis was performed with special reference to pathways and molecular processes and diseases associated with neurodegenerative disease, including dementia, Alzheimer's disease, ALS, TBI and stroke, and with scarring and fibrosis, including glaucoma and normal pressure hydrocephalus (NPH) after subarachnoid haemorrhage.
# [1] = TBI + 1 mg/kg LMW-DS relative to control
substance,measurement,setting,value
sodium salt of dextran sulfate [LMW-DS],"Abdominal cancer (disease/function), z score",TBI + 1 mg/kg LMW-DS,−1.538
same,"Abdominal carcinoma (disease/function), z score",TBI + 1 mg/kg LMW-DS,−1.715
same,"Abdominal neoplasm (disease/function), z score",TBI + 1 mg/kg LMW-DS,−0.154
same,"Activation of blood cells (disease/function), z score",TBI + 1 mg/kg LMW-DS,0.086
same,"Activation of cells (disease/function), z score",TBI + 1 mg/kg LMW-DS,0.836
same,"Activation of leukocytes (disease/function), z score",TBI + 1 mg/kg LMW-DS,0.086
same,"Activation of lymphocytes (disease/function), z score",TBI + 1 mg/kg LMW-DS,−1.158
same,"Adhesion of tumor cell lines (disease/function), z score",TBI + 1 mg/kg LMW-DS,2.074
same,"Apoptosis (disease/function), z score",TBI + 1 mg/kg LMW-DS,−0.337
same,"Apoptosis of muscle cells (disease/function), z score",TBI + 1 mg/kg LMW-DS,0.041
same,"Behavior (disease/function), z score",TBI + 1 mg/kg LMW-DS,1.334
same,"Binding of tumor cell lines (disease/function), z score",TBI + 1 mg/kg LMW-DS,2.397
same,"Carcinoma (disease/function), z score",TBI + 1 mg/kg LMW-DS,−0.127
same,"Cell death (disease/function), z score",TBI + 1 mg/kg LMW-DS,−0.793
same,"Cell death of blood cells (disease/function), z score",TBI + 1 mg/kg LMW-DS,1.082
same,"Cell death of immune cells (disease/function), z score",TBI + 1 mg/kg LMW-DS,1.001
same,"Cell movement (disease/function), z score",TBI + 1 mg/kg LMW-DS,1.948
same,"Cell movement of muscle cells (disease/function), z score",TBI + 1 mg/kg LMW-DS,−0.26
same,"Cell movement of vascular smooth muscle cells (disease/function), z score",TBI + 1 mg/kg LMW-DS,−0.588
same,"Cell proliferation of T lymphocytes (disease/function), z score",TBI + 1 mg/kg LMW-DS,−1.097
same,"Cellular homeostasis (disease/function), z score",TBI + 1 mg/kg LMW-DS,0.19
same,"Development of connective tissue cells (disease/function), z score",TBI + 1 mg/kg LMW-DS,−0.332
same,"Differentiation of bone cells (disease/function), z score",TBI + 1 mg/kg LMW-DS,−0.341
same,"Differentiation of connective tissue cells (disease/function), z score",TBI + 1 mg/kg LMW-DS,0.73
same,"Differentiation of hematopoietic progenitor cells (disease/function), z score",TBI + 1 mg/kg LMW-DS,0.487
same,"Differentiation of osteoclasts (disease/function), z score",TBI + 1 mg/kg LMW-DS,−0.223
same,"Digestive organ tumor (disease/function), z score",TBI + 1 mg/kg LMW-DS,−0.604
same,"Experimentally-induced arthritis (disease/function), z score",TBI + 1 mg/kg LMW-DS,−0.816
same,"Extracranial solid tumor (disease/function), z score",TBI + 1 mg/kg LMW-DS,0.056
same,"Genital tumor (disease/function), z score",TBI + 1 mg/kg LMW-DS,0.13
same,"IL-1 Signaling canonical pathway, effect",TBI + 1 mg/kg LMW-DS,Inhibited
same,"Incidence of tumor (disease/function), z score",TBI + 1 mg/kg LMW-DS,−1.131
same,"Inflammation of absolute anatomical region (disease/function), z score",TBI + 1 mg/kg LMW-DS,−1.359
same,"Inflammation of body cavity (disease/function), z score",TBI + 1 mg/kg LMW-DS,−1.757
same,"Inflammation of joint (disease/function), z score",TBI + 1 mg/kg LMW-DS,−0.053
same,"Inflammation of organ (disease/function), z score",TBI + 1 mg/kg LMW-DS,−1.295
same,"Inflammatory response (disease/function), z score",TBI + 1 mg/kg LMW-DS,1.159
same,"Interaction of mononuclear leukocytes (disease/function), z score",TBI + 1 mg/kg LMW-DS,1.626
same,"Leukocyte migration (disease/function), z score",TBI + 1 mg/kg LMW-DS,1.296
same,"Leukopoiesis (disease/function), z score",TBI + 1 mg/kg LMW-DS,1.185
same,"Lymphopoiesis (disease/function), z score",TBI + 1 mg/kg LMW-DS,0.583
same,"Malignant solid tumor (disease/function), z score",TBI + 1 mg/kg LMW-DS,−0.562
same,"Migration of cells (disease/function), z score",TBI + 1 mg/kg LMW-DS,2.093
same,"Necrosis (disease/function), z score",TBI + 1 mg/kg LMW-DS,−0.361
same,"Non-hematologic malignant neoplasm (disease/function), z score",TBI + 1 mg/kg LMW-DS,−0.243
same,"Osteoarthritis Pathway canonical pathway, effect",TBI + 1 mg/kg LMW-DS,Inhibited
same,"Pelvic tumor (disease/function), z score",TBI + 1 mg/kg LMW-DS,−0.651
same,"Proliferation of blood cells (disease/function), z score",TBI + 1 mg/kg LMW-DS,−1.083
same,"Proliferation of lymphatic system cells (disease/function), z score",TBI + 1 mg/kg LMW-DS,−1.112
same,"Proliferation of lymphocytes (disease/function), z score",TBI + 1 mg/kg LMW-DS,−0.852
same,"Quantity of blood cells (disease/function), z score",TBI + 1 mg/kg LMW-DS,−1.479
same,"Quantity of bone (disease/function), z score",TBI + 1 mg/kg LMW-DS,−1.985
same,"Quantity of cells (disease/function), z score",TBI + 1 mg/kg LMW-DS,−0.765
same,"Quantity of connective tissue cells (disease/function), z score",TBI + 1 mg/kg LMW-DS,0.637
same,"Quantity of leukocytes (disease/function), z score",TBI + 1 mg/kg LMW-DS,−1.163
same,"Quantity of lymphatic system cells (disease/function), z score",TBI + 1 mg/kg LMW-DS,−0.701
same,"Quantity of phagocytes (disease/function), z score",TBI + 1 mg/kg LMW-DS,−2.061
same,"Rheumatic Disease (disease/function), z score",TBI + 1 mg/kg LMW-DS,−0.053
same,"Role of NFAT in Regulation of the Immune Response canonical pathway, effect",TBI + 1 mg/kg LMW-DS,Activated
same,"Solid tumor (disease/function), z score",TBI + 1 mg/kg LMW-DS,−0.186
same,"Survival of organism (disease/function), z score",TBI + 1 mg/kg LMW-DS,−0.095
same,"Synthesis of hormone (disease/function), z score",TBI + 1 mg/kg LMW-DS,0.977
same,"Thrombus (disease/function), z score",TBI + 1 mg/kg LMW-DS,1
same,"Transcription of RNA (disease/function), z score",TBI + 1 mg/kg LMW-DS,1.519
same,"Transport of molecule (disease/function), z score",TBI + 1 mg/kg LMW-DS,2.421
same,"IL-1 Signaling canonical pathway, z score",[1],−1
same,"Osteoarthritis Pathway canonical pathway, z score",[1],−1.342
same,"Role of NFAT in Regulation of the Immune Response canonical pathway, z score",[1],0.378
same,"Abdominal cancer (disease/function), z score",TBI + 5 mg/kg LMW-DS,−2.553
same,"Abdominal carcinoma (disease/function), z score",TBI + 5 mg/kg LMW-DS,−2.631
same,"Abdominal neoplasm (disease/function), z score",TBI + 5 mg/kg LMW-DS,−0.927
same,"Adrenomedullin Signaling pathway canonical pathway, effect",TBI + 5 mg/kg LMW-DS,Inhibited
